The record followed here is ChEMBL document CHEMBL6177951, “Synthesis and anti-MRSA activity of quaternized small molecule antimicrobial peptide mimics based on norharmane” (Eur J Med Chem, 2025).

For test [1], the system named is Staphylococcus aureus. The experiment in a line: Antibacterial activity against Staphylococcus aureus CMCC 26003 assessed as inhibition of bacterial growth incubated for 14 hrs by two-fold serial dilution method. It counts as functional.
For test [2], the system named is Staphylococcus aureus. The test is described as follows: Antibacterial activity against methicillin-resistant Staphylococcus aureus ATCC 43300 assessed as inhibition of bacterial growth incubated for 14 hrs by two-fold serial dilution method. The test is classed as functional.
Test [3] relates to Staphylococcus aureus. The test is described as follows: Antibacterial activity against methicillin-resistant Staphylococcus aureus ATCC 33591 assessed as inhibition of bacterial growth incubated for 14 hrs by two-fold serial dilution method. The test is classed as functional.
In test [4] the test system is Staphylococcus aureus. The experiment in a line: Antibacterial activity against Staphylococcus aureus ATCC 25923 assessed as inhibition of bacterial growth incubated for 14 hrs by two-fold serial dilution method. The test is classed as functional.
For test [5], the system named is Staphylococcus aureus. The test is described as follows: Antibacterial activity against Staphylococcus aureus ATCC 29213 assessed as inhibition of bacterial growth incubated for 14 hrs by two-fold serial dilution method. It counts as functional.
The subject of test [6] is Staphylococcus aureus. The test is described as follows: Antibacterial activity against methicillin-resistant Staphylococcus aureus clinical isolate M-14 incubated for 14 hrs by two-fold serial dilution method. The test is classed as functional.
Test [7] deals with Staphylococcus aureus. The experiment in a line: Antibacterial activity against methicillin-resistant Staphylococcus aureus clinical isolate M-22 incubated for 14 hrs by two-fold serial dilution method. It counts as functional.
The subject of test [8] is Staphylococcus aureus. The experiment in a line: Antibacterial activity against methicillin-resistant Staphylococcus aureus clinical isolate M-23 incubated for 14 hrs by two-fold serial dilution method. It counts as functional.
In test [9] the test system is Staphylococcus aureus. The test is described as follows: Antibacterial activity against methicillin-resistant Staphylococcus aureus clinical isolate M-20 incubated for 14 hrs by two-fold serial dilution method. It counts as functional.
Test [10] has as its system Staphylococcus aureus. The test is described as follows: Antibacterial activity against methicillin-resistant Staphylococcus aureus clinical isolate M-18 incubated for 14 hrs by two-fold serial dilution method. The test is classed as functional.
The test system of test [11] is Staphylococcus aureus. The experiment in a line: Antibacterial activity against methicillin-resistant Staphylococcus aureus clinical isolate M-16 incubated for 14 hrs by two-fold serial dilution method. The test is classed as functional.
In test [12] the test system is Staphylococcus aureus. The test is described as follows: Antibacterial activity against methicillin-resistant Staphylococcus aureus clinical isolate M-17 incubated for 14 hrs by two-fold serial dilution method. It counts as functional.
Test [13] has as its system Staphylococcus aureus. The test is described as follows: Antibacterial activity against methicillin-resistant Staphylococcus aureus clinical isolate M-13 incubated for 14 hrs by two-fold serial dilution method. It counts as functional.
The subject of test [14] is Staphylococcus aureus. The experiment in a line: Antibacterial activity against methicillin-resistant Staphylococcus aureus clinical isolate M-15 incubated for 14 hrs by two-fold serial dilution method. The test is classed as functional.
Test [15] relates to Staphylococcus aureus. The test is described as follows: Antibacterial activity against methicillin-resistant Staphylococcus aureus clinical isolate M-21 incubated for 14 hrs by two-fold serial dilution method. It counts as functional.
The subject of test [16] is Staphylococcus aureus. The test is described as follows: Antibacterial activity against methicillin-resistant Staphylococcus aureus clinical isolate M-19 incubated for 14 hrs by two-fold serial dilution method. It counts as functional.
The subject of test [17] is Staphylococcus aureus. The test is described as follows: Antibacterial activity against Staphylococcus aureus ATCC 33591 assessed as resistance development by measuring fold increase in MIC at 0.5 times MIC incubated for 8 hrs and measured after 15 passages. It counts as functional.
For test [18], the system named is Staphylococcus aureus. The test is described as follows: In vivo antibacterial activity against methicillin-resistant Staphylococcus aureus infected in female Kunming mouse skin infection model assessed as log reduction in bacterial load at 5 mg/kg measured after 48 hrs (reference value: 14.34 log10CFU/g). The test is classed as functional.
For test [19], the system named is Staphylococcus aureus. The test is described as follows: In vivo antibacterial activity against methicillin-resistant Staphylococcus aureus infected in female Kunming mouse skin infection model assessed as reduction in inflammatory cells at 5 to 20 mg/kg measured after 48 hrs by H and E staining based analysis. It counts as functional, organism-based. Conditions: dose 5-20 mg/kg.

In test [20] the test system is Staphylococcus aureus. The experiment in a line: In vivo antibacterial activity against methicillin-resistant Staphylococcus aureus infected in female Kunming mouse skin infection model assessed as recovery of dorsal surface at 5 to 20 mg/kg measured after 48 hrs. The test is classed as functional, organism-based. As to conditions: dose 5-20 mg/kg.
The test system of test [21] is Staphylococcus aureus. The experiment in a line: Antibacterial activity against Staphylococcus aureus ATCC 33591 assessed as log reduction in bacterial growth at 1 times MIC measured at 6 hrs by time-kill kinetic assay. It counts as functional.

Each structure is given as a SMILES string. Values after ≈ are worked out from the molar mass of the structure shown. Active and inactive are the calls of the source. No cut-off for these calls is given here.

A word on the MIC: it is the lowest concentration that inhibits growth of the organism. As for `c1ccc2c(c1)c1ccncc1n2CCCCCCCCCCn1c2ccccc2c2ccncc21`, the MIC in test [1], in test [2], in test [3], in test [4] and in [5] was over 128 µg/mL in each case.

On to `c1ccc2c(c1)c1ccncc1n2CCCCCCCCCCCCn1c2ccccc2c2ccncc21`, for which the MIC in test [1], in [2], in test [3], in test [4] and in test [5] was over 128 µg/mL throughout.

Regarding `C[n+]1ccc2c3ccccc3n(CC[N+](C)(C)C)c2c1.[I-].[I-]`, the MIC was over 128 µg/mL in test [1]; over 128 µg/mL in test [2]; over 128 µg/mL in test [3]; 128 µg/mL in [4]; over 128 µg/mL in [5].

Take `CCC[n+]1ccc2c3ccccc3n(CC[N+](C)(C)CCC)c2c1.[Br-].[Br-]`: the MIC in test [1] is over 128 µg/mL; in test [2], over 128 µg/mL; in test [3] it was over 128 µg/mL; in [4], 64 µg/mL; in [5] it was over 128 µg/mL.

On to `CCCCC[n+]1ccc2c3ccccc3n(CC[N+](C)(C)CCCCC)c2c1.[Br-].[Br-]`, for which the MIC in test [1] was over 128 µg/mL; in test [2] it was over 128 µg/mL; in test [3], over 128 µg/mL; in [4], 128 µg/mL; in [5], over 128 µg/mL.

Regarding `CCCC[n+]1ccc2c3ccccc3n(CCN(CC)CC)c2c1.[Br-]`, the MIC was determined as 16 µg/mL in test [1]; 64 µg/mL in test [2]; 64 µg/mL in test [3]; 16 µg/mL in [4]; 128 µg/mL in test [5].

With `c1ccc2c(c1)c1ccncc1n2CCCCCCCCCCCn1c2ccccc2c2ccncc21`, the MIC in [1], in [2], in [3], in test [4] and in test [5] was over 128 µg/mL each time.

As for `CCCC[n+]1ccc2c3ccccc3n(CC[N+](C)(C)CCCC)c2c1.[Br-].[Br-]`, the MIC in test [1] was over 128 µg/mL; in test [2] it was over 128 µg/mL; in test [3] it was 128 µg/mL; in test [4], 128 µg/mL; in [5], over 128 µg/mL.

For the molecule `CC[N+](C)(CC)CCn1c2ccccc2c2cc[n+](C)cc21.[I-].[I-]`, the MIC was over 128 µg/mL in test [1]; over 128 µg/mL in [2]; over 128 µg/mL in [3]; 128 µg/mL in [4]; over 128 µg/mL in test [5].

Consider `CCN(CC)CCn1c2ccccc2c2ccncc21`, for which the MIC in test [1] is 128 µg/mL (≈ 479 µM); in test [2], 128 µg/mL (≈ 479 µM); in [3] it was 128 µg/mL (≈ 479 µM); in test [4], 64 µg/mL (≈ 239 µM); in test [5], 128 µg/mL (≈ 479 µM).

`C[n+]1ccc2c3ccccc3n(CCCCCCCCCn3c4ccccc4c4cc[n+](C)cc43)c2c1.[I-].[I-]`: the MIC is 1 µg/mL in [6]; 0.5 µg/mL in [1]; 2 µg/mL in test [7]; 4 µg/mL in test [2]; 4 µg/mL in test [8]; 2 µg/mL in test [9]. Also, the MIC in test [3] was found to be 0.5 µg/mL; in test [10] it was 4 µg/mL; in [4], 4 µg/mL; in test [11] it was 2 µg/mL; in test [12], 4 µg/mL; in test [5] it was 2 µg/mL. The MIC is 1 µg/mL in test [13], 4 µg/mL in test [14], 4 µg/mL in test [15] and 4 µg/mL in [16].

For the molecule `C[n+]1ccc2c3ccccc3n(CCCCCCCCCCn3c4ccccc4c4cc[n+](C)cc43)c2c1.[I-].[I-]`, the minimum inhibitory concentration (MIC) was 1 µg/mL in test [6]; 0.5 µg/mL in [1]; 1 µg/mL in test [7]; 2 µg/mL in test [2]; 2 µg/mL in [8]; 1 µg/mL in test [9]. The MIC in test [3] came out at 0.5 µg/mL; in [10], 2 µg/mL; in test [4], 2 µg/mL; in [11], 1 µg/mL; in test [12], 2 µg/mL; in [5], 1 µg/mL. Besides, the MIC turned out to be 1 µg/mL in test [13], 2 µg/mL in test [14], 2 µg/mL in test [15] and 2 µg/mL in test [16].

`C[n+]1ccc2c3ccccc3n(CCCCCCCCCCCCn3c4ccccc4c4cc[n+](C)cc43)c2c1.[I-].[I-]`: the MIC in test [6] was 1 µg/mL; in test [1], 0.5 µg/mL; in test [7], 1 µg/mL; in test [2], 1 µg/mL; in test [8], 1 µg/mL; in test [9], 1 µg/mL. Further, the MIC was 0.5 µg/mL in test [3]; 1 µg/mL in test [10]; 1 µg/mL in test [4]; 1 µg/mL in [11]; 1 µg/mL in [12]; 0.5 µg/mL in [5]. Moreover, the MIC in test [13], in test [14], in [15] and in test [16] was 1 µg/mL throughout.

Consider `CC[n+]1ccc2c3ccccc3n(CC[N+](CC)(CC)CC)c2c1.[Br-].[Br-]`, for which the MIC in [1] is over 128 µg/mL; in test [2], over 128 µg/mL; in test [3], over 128 µg/mL; in test [4], 128 µg/mL; in test [5] it was over 128 µg/mL.

In the case of `CCn1cc(C(=O)O)c(=O)c2cc(F)c(N3CCNCC3)cc21` [NORFLOXACIN], the “fold change (FC)” value in [17] is given as 16.

As for `CCN(CC)CCn1c2ccccc2c2cc[n+](CC)cc21.[Br-]`, the MIC in test [1] was 32 µg/mL; in [2] it was over 128 µg/mL; in test [3] it was 128 µg/mL; in test [4], 32 µg/mL; in test [5] it was over 128 µg/mL.

For the molecule `CN[C@H](CC(C)C)C(=O)N[C@H]1C(=O)N[C@@H](CC(N)=O)C(=O)N[C@H]2C(=O)N[C@H]3C(=O)N[C@H](C(=O)N[C@H](C(=O)O)c4cc(O)cc(O)c4-c4cc3ccc4O)[C@H](O)c3ccc(c(Cl)c3)Oc3cc2cc(c3O[C@@H]2O[C@H](CO)[C@@H](O)[C@H](O)[C@H]2O[C@H]2C[C@](C)(N)[C@H](O)[C@H](C)O2)Oc2ccc(cc2Cl)[C@H]1O` [VANCOMYCIN], the Activity in [18] came out at 4.99 log10CFU/g; in test [21] it was 2.74 log10CFU/ml. Besides, the result in test [19] and in test [20] was Active.

Turning to `c1ccc2c(c1)[nH]c1cnccc12` [NORHARMANE], the MIC in [1] amounted to 64 µg/mL (≈ 381 µM); in [2], 64 µg/mL (≈ 381 µM); in [3], 64 µg/mL (≈ 381 µM); in test [4] it was 32 µg/mL (≈ 190 µM); in test [5], 64 µg/mL (≈ 381 µM).

In the case of `CCC[n+]1ccc2c3ccccc3n(CCN(CC)CC)c2c1.[Br-]`, the MIC in test [1] was 32 µg/mL; in test [2], 128 µg/mL; in test [3], 128 µg/mL; in [4], 32 µg/mL; in test [5], over 128 µg/mL.

`c1ccc2c3c([nH]c2c1)CNCC3` [TRYPTOLINE]: the MIC in test [1] is 128 µg/mL (≈ 743 µM); in test [2], 128 µg/mL (≈ 743 µM); in test [3], 128 µg/mL (≈ 743 µM); in test [4] it was 128 µg/mL (≈ 743 µM); in test [5] it was over 128 µg/mL.

`c1ccc2c(c1)c1ccncc1n2CCCCCCCCCn1c2ccccc2c2ccncc21`: the MIC in [1], in test [2], in test [3], in test [4] and in test [5] was over 128 µg/mL in each case.

Take `CN(C)CCn1c2ccccc2c2ccncc21`: the MIC in test [1] was over 128 µg/mL; in [2], over 128 µg/mL; in [3], 128 µg/mL (≈ 535 µM); in test [4], 64 µg/mL (≈ 267 µM); in test [5] it was 64 µg/mL (≈ 267 µM).

Take `CC[n+]1ccc2c3ccccc3n(CC[N+](C)(C)CC)c2c1.[Br-].[Br-]`: the minimum inhibitory concentration (MIC) in test [1] is over 128 µg/mL; in test [2], over 128 µg/mL; in test [3], over 128 µg/mL; in test [4] it was 128 µg/mL; in [5], over 128 µg/mL.

For `CCCCC[n+]1ccc2c3ccccc3n(CCN(CC)CC)c2c1.[Br-]`, the MIC came out at 16 µg/mL in test [1]; 32 µg/mL in [2]; 32 µg/mL in test [3]; 8 µg/mL in test [4]; 128 µg/mL in test [5].
